Key:
MOG35-55 EAE = assay: Active MOG35-55 EAE, clinical scores; assay type: in vivo, mouse; settings: prophylactic, 5 mg/kg i.p. daily from day 0, FIG. 14B
human macrophages = assay: ROS production (DHE) in fibrin-stimulated human macrophages; assay type: cell-based; settings: fibrin 24 h, 5 μM inhibitor, FIG. 6b
Description: Human macrophage cultures. Human peripheral blood mononuclear cells (PBMCs) were purchased from AllCells, LLC (Alameda, Calif.). To differentiate PBMC into monocyte-derived macrophages, 2×10^6 PBMC/mL were plated in RPMI-1640 media supplemented with 10% FBS, 1% penicillin-streptomycin (Corning), and 50 ng/ml human M-CSF (300-25, Peprotech) in tissue-culture treated dishes (Corning). After 24 h, non-adherent cells were removed, and adherent cells were cultivated for 7-8 additional days at 37° C. in 5% CO2 to promote their full differentiation into macrophages. Oxidant detection with DHE. Intracellular concentrations of ROS were measured using dihydroethidium (DHE) as described (9). Cultured BMDMs or human macrophages were incubated in medium containing 5 μM DHE (Invitrogen) for 30 min Cells were plated on 96-well, black μ-clear-bottom microtiter plates (Greiner Bio-One) pre-coated with 25 μg/ml fibrin. For GGT inhibition, BMDMs or human macrophages were pre-incubated with 5 μM acivicin or GGsTop for 1 h, and the cells were plated on fibrin-coated 96-well plates as described above. PBS was used as vehicle control. Cells were then incubated for 24-48 h and fixed with 4% PFA for 10 min. The DHE fluorescence was detected at an excitation/emission wavelength of 518 nm/605 nm using a SpectraMax M5 microplate reader (Molecular Devices) with SoftMax Pro 5.2 software (Phoenix Technologies Ltd.).

mouse BMDMs = assay: ROS production (DHE) in fibrin-stimulated mouse BMDMs; assay type: cell-based; settings: fibrin 24 h, 5 μM inhibitor, FIG. 6b
Description: Bone marrow—derived macrophage cultures. […]. In brief, bone-marrow cells were isolated from tibia and femur of C57BL/6 mice, Ggt1^+/+ mice or Ggt1^dwg/dwg mice and cultured in RPMI-1640 medium supplemented with 10% FBS, 1% penicillin-streptomycin (Corning), and 10 ng/ml murine M-CSF (14-8983-80, Thermo Fisher Scientific). On days 6-7, adherent BMDMs were harvested by adding PBS with 5 mM EDTA to the plates and used for assays.
Human macrophage cultures. Human peripheral blood mononuclear cells (PBMCs) were purchased from AllCells, LLC (Alameda, Calif.). To differentiate PBMC into monocyte-derived macrophages, 2×10^6 PBMC/mL were plated in RPMI-1640 media supplemented with 10% FBS, 1% penicillin-streptomycin (Corning), and 50 ng/ml human M-CSF (300-25, Peprotech) in tissue-culture treated dishes (Corning). After 24 h, non-adherent cells were removed, and adherent cells were cultivated for 7-8 additional days at 37° C. in 5% CO2 to promote their full differentiation into macrophages. Oxidant detection with DHE. Intracellular concentrations of ROS were measured using dihydroethidium (DHE) as described (9). […] The DHE fluorescence was detected at an excitation/emission wavelength of 518 nm/605 nm using a SpectraMax M5 microplate reader (Molecular Devices) with SoftMax Pro 5.2 software (Phoenix Technologies Ltd.).

intracellular GSH = assay type: cell-based, mouse
Description: Real-time imaging of glutathione. The real-time GSH dynamics in living BMDMs was determined with the fluorescent GSH probe, RealThiol RT-AM as described (37). Cells were plated on 2-well chamber slide (Nunc) pre-coated with 25 μg/ml fibrin. Cells were stimulated with fibrin with or without 5 μM acivicin or GGsTop. The GSH synthesis inhibitor, buthionine sulfoximine (BSO, Sigma-Aldrich) was used as positive control for reducing intracellular GSH levels at 100 μM. After 24 h incubation, cells were loaded with 1 μM RT-AM probe and were incubated for 5 min before imaging. The cells were kept at 37° C. during the entire experiment. […] For each independent experiment, laser power and detector settings were set using the control/untreated cells incubated with RT-AM alone as reference. All settings were kept constant throughout the experiment. […] The ratio calculated for each treatment was expressed as percentage from that of the untreated cells (control).

GGT = target: T1, GGT (Mus musculus, UniProt Q60928); assay: GGT activity assay in fibrin-stimulated BMDMs (enzymatic kit, ProteoGREEN-gGlu probe); assay type: cell-based; settings: FIG. 6c, FIG. 13A, B
T1 construct: GGT activity in BMDMs left unstimulated or stimulated with fibrin after acivicin or vehicle control treatment; endogenous in cells; host or cells: mouse bone marrow-derived macrophages (BMDMs), fibrin-stimulated
Description: GGT activity assay. GGT activity was measured using the MaxDiscovery gamma-Glutamyl Transferase (GGT) Enzymatic Assay Kit (Bioo Scientific) according to the manufacturer's protocol. […]. For in vivo GGT activity assay, spinal cord tissues from the onset of MOG35-55 EAE or LPS-injected substantia nigra area at 12 h were prepared. Tissues were homogenized in 0.1 M Tris-HCl and centrifuged at 13,000 g for 30 min at 4° C. The supernatant was collected and subsequently assessed for GGT activity. The absorbance at 405 nm was detected with a SpectraMax M5 microplate reader (Molecular Devices) with SoftMax Pro 5.2 software (Phoenix Technologies Ltd.). The GGT activity in IU/1 was calculated following the manufacturer's protocol by multiplying the average increase in absorbance at 405 nm over 10 min GGT activity was also measured using a fluorescent probe, ProteoGREEN-gGlu (Goryo Chemical, Hokkaido, Japan), according to the manufacturer's protocol. Cultured BMDMs were plated on 96-well, black μ-clear-bottom microtiter plates (Greiner Bio-One) pre-coated with 25 μg/ml fibrin. […] The fluorescence intensity (excitation/emission filter pairs of 488 nm/520 nm) was measured using a SpectraMax M5 microplate reader (Molecular Devices) with SoftMax Pro 5.2 software (Phoenix Technologies).

renal reperfusion injury = settings: cited from earlier work

T1 sequence (Q60928 380-568): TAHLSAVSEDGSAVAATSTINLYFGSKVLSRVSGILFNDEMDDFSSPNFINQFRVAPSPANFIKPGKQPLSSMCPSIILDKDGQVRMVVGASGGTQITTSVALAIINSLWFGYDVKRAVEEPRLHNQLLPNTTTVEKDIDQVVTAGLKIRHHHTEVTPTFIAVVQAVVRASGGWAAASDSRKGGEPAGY
T1 sequence (Q60928 1-379): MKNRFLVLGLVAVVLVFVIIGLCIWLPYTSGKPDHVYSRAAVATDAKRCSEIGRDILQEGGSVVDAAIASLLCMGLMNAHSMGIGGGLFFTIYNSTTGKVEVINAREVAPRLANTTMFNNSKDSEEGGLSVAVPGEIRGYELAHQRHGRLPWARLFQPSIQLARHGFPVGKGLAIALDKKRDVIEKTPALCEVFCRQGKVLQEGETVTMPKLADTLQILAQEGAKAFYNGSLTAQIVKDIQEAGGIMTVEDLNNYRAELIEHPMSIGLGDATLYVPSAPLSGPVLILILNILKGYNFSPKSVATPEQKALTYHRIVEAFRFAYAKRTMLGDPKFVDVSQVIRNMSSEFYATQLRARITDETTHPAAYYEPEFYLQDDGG

COP(=O)(CCC(N)C(=O)O)Oc1cccc(CC(=O)O)c1 (stereo not shown) [GGsTop]
neurologic signs (MOG35-55 EAE): reduced
ROS generation (DHE) in human macrophages (human macrophages): inhibited
ROS generation (DHE) in mouse macrophages (mouse BMDMs): inhibited
fibrin-induced degradation of glutathione (RealThiol F405/F488) (intracellular GSH): inhibited
fibrin-induced GGT activity in BMDMs (GGT): inhibited
oxidative stress markers (renal reperfusion injury): reduced
renal reperfusion injury (renal reperfusion injury): protected

From US20210330611A1, “THERAPY FOR NEUROLOGICAL DISEASES/DISORDERS” (priority 2020, published 2021)
